Reference: patent US20240226125A1, “USE OF SOTAGLIFLOZIN FOR THE TREATMENT OF PATIENTS WITH TYPE 1 DIABETES MELLITUS” (priority 2019, published 2024)

Tested on: adult patients with Type 1 Diabetes Mellitus who have inadequate glycemic control with insulin therapy
Experiment: inTandem 1 and inTandem 2 pooled double-blind placebo-controlled clinical studies, efficacy
Type: in vivo, human
[1] = 200 mg vs placebo, Baseline BMI <27 kg/m^2, Week 24
[2] = 200 mg vs placebo, Baseline BMI <27 kg/m^2, Week 52
[3] = 200 mg vs placebo, Baseline BMI ≥27 kg/m^2, Week 24
[4] = 200 mg vs placebo, Baseline BMI ≥27 kg/m^2, Week 52
[5] = 200 mg, Baseline BMI <27 kg/m^2, Week 24
[6] = 200 mg, Baseline BMI <27 kg/m^2, Week 52
[7] = 200 mg, Baseline BMI ≥27 kg/m^2, Week 24
[8] = 200 mg, Baseline BMI ≥27 kg/m^2, Week 52
[9] = 400 mg vs placebo, Baseline BMI <27 kg/m^2, Week 24
[10] = 400 mg vs placebo, Baseline BMI <27 kg/m^2, Week 52
[11] = 400 mg vs placebo, Baseline BMI ≥27 kg/m^2, Week 24
[12] = 400 mg vs placebo, Baseline BMI ≥27 kg/m^2, Week 52
[13] = 400 mg, Baseline BMI <27 kg/m^2, Week 24
[14] = 400 mg, Baseline BMI <27 kg/m^2, Week 52

CCOc1ccc(Cc2cc([C@@H]3O[C@H](SC)[C@@H](O)[C@H](O)[C@H]3O)ccc2Cl)cc1 [sotagliflozin, (2S,3R,4R,5S,6R)-2-(4-chloro-3-(4-ethoxybenzyl)phenyl)-6-(methylthio)tetrahydro-2H-pyran-3,4,5-triol]
2-hour postprandial plasma glucose (mg/dL) LS Mean Difference (SE) [1]: −66.0 (20.22) mg/dL
A1C (%) LS Mean Difference (SE) [1]: −0.32 (0.062) %
Body weight (kg) LS Mean Difference (SE) [1]: −2.06 (0.240) kg
DDS2 (score) LS Mean Difference (SE) [1]: −0.4 (0.16) score
DTSQ (score) LS Mean Difference (SE) [1]: 1.7 (0.42) score
Fasting plasma glucose (mg/dL) LS Mean Difference (SE) [1]: −15.7 (5.69) mg/dL
SBP (mmHg) LS Mean Difference (SE) [1]: −3.1 (0.97) mmHg
Time in range (%) LS Mean Difference (SE) [1]: 1.638 (3.8450) %
A1C (%) LS Mean Difference (SE) [2]: −0.20 (0.078) %
Body weight (kg) LS Mean Difference (SE) [2]: −2.26 (0.317) kg
SBP (mmHg) LS Mean Difference (SE) [2]: −4.1 (1.05) mmHg
2-hour postprandial plasma glucose (mg/dL) LS Mean Difference (SE) [3]: −19.0 (14.71) mg/dL
A1C (%) LS Mean Difference (SE) [3]: −0.39 (0.046) %
Body weight (kg) LS Mean Difference (SE) [3]: −2.27 (0.272) kg
DDS2 (score) LS Mean Difference (SE) [3]: −0.6 (0.13) score
DTSQ (score) LS Mean Difference (SE) [3]: 2.6 (0.35) score
Fasting plasma glucose (mg/dL) LS Mean Difference (SE) [3]: −15.7 (4.57) mg/dL
SBP (mmHg) LS Mean Difference (SE) [3]: −1.3 (0.87) mmHg
Time in range (%) LS Mean Difference (SE) [3]: 8.171 (2.9713) %
A1C (%) LS Mean Difference (SE) [4]: −0.24 (0.056) %
Body weight (kg) LS Mean Difference (SE) [4]: −3.01 (0.357) kg
SBP (mmHg) LS Mean Difference (SE) [4]: −2.1 (0.90) mmHg
2-hour postprandial plasma glucose (mg/dL) LS Mean change (SE) [5]: −49.5 (17.63) mg/dL
A1C (%) LS Mean change (SE) [5]: −0.38 (0.047) %
Body weight (kg) LS Mean change (SE) [5]: −1.43 (0.177) kg
DDS2 (score) LS Mean change (SE) [5]: −0.2 (0.13) score
DTSQ (score) LS Mean change (SE) [5]: 1.7 (0.33) score
Fasting plasma glucose (mg/dL) LS Mean change (SE) [5]: −10.8 (4.22) mg/dL
SBP (mmHg) LS Mean change (SE) [5]: −3.0 (0.74) mmHg
Time in range (%) LS Mean change (SE) [5]: −0.532 (2.9540) %
A1C (%) LS Mean change (SE) [6]: −0.19 (0.057) %
Body weight (kg) LS Mean change (SE) [6]: −1.57 (0.230) kg
SBP (mmHg) LS Mean change (SE) [6]: −1.4 (0.79) mmHg
2-hour postprandial plasma glucose (mg/dL) LS Mean change (SE) [7]: −36.8 (11.72) mg/dL
A1C (%) LS Mean change (SE) [7]: −0.43 (0.034) %
Body weight (kg) LS Mean change (SE) [7]: −1.93 (0.196) kg
DDS2 (score) LS Mean change (SE) [7]: −0.5 (0.10) score
DTSQ (score) LS Mean change (SE) [7]: 2.3 (0.26) score
Fasting plasma glucose (mg/dL) LS Mean change (SE) [7]: −9.3 (3.33) mg/dL
SBP (mmHg) LS Mean change (SE) [7]: −2.9 (0.64) mmHg
Time in range (%) LS Mean change (SE) [7]: 6.254 (2.1983) %
A1C (%) LS Mean change (SE) [8]: −0.24 (0.041) %
Body weight (kg) LS Mean change (SE) [8]: −2.16 (0.254) kg
SBP (mmHg) LS Mean change (SE) [8]: −1.7 (0.66) mmHg
2-hour postprandial plasma glucose (mg/dL) LS Mean Difference (SE) [9]: −86.1 (21.27) mg/dL
A1C (%) LS Mean Difference (SE) [9]: −0.27 (0.063) %
Body weight (kg) LS Mean Difference (SE) [9]: −2.55 (0.243) kg
DDS2 (score) LS Mean Difference (SE) [9]: −0.5 (0.16) score
DTSQ (score) LS Mean Difference (SE) [9]: 1.5 (0.43) score
Fasting plasma glucose (mg/dL) LS Mean Difference (SE) [9]: −16.4 (5.78) mg/dL
SBP (mmHg) LS Mean Difference (SE) [9]: −3.5 (0.98) mmHg
Time in range (%) LS Mean Difference (SE) [9]: 6.335 (3.8492) %
A1C (%) LS Mean Difference (SE) [10]: −0.21 (0.079) %
Body weight (kg) LS Mean Difference (SE) [10]: −2.41 (0.324) kg
SBP (mmHg) LS Mean Difference (SE) [10]: −3.7 (1.08) mmHg
2-hour postprandial plasma glucose (mg/dL) LS Mean Difference (SE) [11]: −21.7 (13.93) mg/dL
A1C (%) LS Mean Difference (SE) [11]: −0.45 (0.045) %
Body weight (kg) LS Mean Difference (SE) [11]: −3.32 (0.270) kg
DDS2 (score) LS Mean Difference (SE) [11]: −0.7 (0.13) score
DTSQ (score) LS Mean Difference (SE) [11]: 2.6 (0.35) score
Fasting plasma glucose (mg/dL) LS Mean Difference (SE) [11]: −25.0 (4.53) mg/dL
SBP (mmHg) LS Mean Difference (SE) [11]: −2.5 (0.87) mmHg
Time in range (%) LS Mean Difference (SE) [11]: 15.051 (2.8562) %
A1C (%) LS Mean Difference (SE) [12]: −0.38 (0.055) %
Body weight (kg) LS Mean Difference (SE) [12]: −4.46 (0.353) kg
SBP (mmHg) LS Mean Difference (SE) [12]: −3.6 (0.89) mmHg
2-hour postprandial plasma glucose (mg/dL) LS Mean change (SE) [13]: −69.6 (17.34) mg/dL
A1C (%) LS Mean change (SE) [13]: −0.34 (0.048) %
Body weight (kg) LS Mean change (SE) [13]: −1.91 (0.181) kg
DDS2 (score) LS Mean change (SE) [13]: −0.4 (0.13) score
DTSQ (score) LS Mean change (SE) [13]: 1.5 (0.33) score
Fasting plasma glucose (mg/dL) LS Mean change (SE) [13]: −11.5 (4.32) mg/dL
SBP (mmHg) LS Mean change (SE) [13]: −3.4 (0.75) mmHg
Time in range (%) LS Mean change (SE) [13]: 4.164 (2.9683) %
A1C (%) LS Mean change (SE) [14]: −0.20 (0.057) %
Body weight (kg) LS Mean change (SE) [14]: −1.72 (0.238) kg
